Source: US20210284639A1, “TYROSINE AMIDE DERIVATIVES AS RHO- KINASE INHIBITORS” (CHIESI FARMACEUTICI S.p.A., priority 2018, published 2021)

How the values were obtained:
ROCK 2 (Rho kinase 2) = ROCK 2 (Rho kinase 2) (Homo sapiens, UniProt O75116); test: In vitro inhibitory activity assay (ADP-Glo), Rho kinase 2; type: biochemical; settings: Ki by Cheng-Prusoff from IC50; 10 μM ATP, 25° C.
Experimental: (§1) In Vitro Inhibitory Activity Assay Description
(§2) The effectiveness of compounds of the present invention to inhibit Rho kinase activity can be determined in a 10 μl assay containing 40 mM Tris pH7.5, 20 mM MgCl2 0.1 mg/ml BSA, 50 μM DTT and 2.5 μM peptide substrate (Myelin Basic Protein) using an ADP-Glo kit (Promega). Compounds were dissolved in DMSO such that the final concentration of DMSO was 1% in the assay. All reactions/incubations are performed at 25° C. Compound (2 μl) and either Rho kinase 1 or 2 (4 μl) were mixed and incubated for 30 mins. Reactions were initiated by addition of ATP (4 μl) such that the final concentration of ATP in the assay was 10 μM. After a 1 hour incubation 10 μl of ADP-Glo Reagent was added and after a further 45 minute incubation 20 μl of Kinase Detection Buffer was added and the mixture incubated for a further 30 minutes. The luminescent signal was measured on a luminometer. […] Compounds were tested in dose-response format and the inhibition of kinase activity was calculated at each concentration of compound. To determine the IC50 (concentration of compound required to inhibit 50% of the enzyme activity) data were fit to a plot of % inhibition vs Log10 compound concentration using a sigmoidal fit with a variable slope and fixing the maximum to 100% and the minimum to 0%. To determine the Ki values the Cheng-Prusoff equation was utilized (Ki=IC50/(1+[S]/Km).

ROCK 1 (Rho kinase 1) = ROCK 1 (Rho kinase 1) (Homo sapiens, UniProt Q13464); test: In vitro inhibitory activity assay (ADP-Glo), Rho kinase 1; type: biochemical; settings: Ki by Cheng-Prusoff from IC50; 10 μM ATP, 25° C.
Chain of ROCK 1 (Rho kinase 1) (Q13464 whole entry): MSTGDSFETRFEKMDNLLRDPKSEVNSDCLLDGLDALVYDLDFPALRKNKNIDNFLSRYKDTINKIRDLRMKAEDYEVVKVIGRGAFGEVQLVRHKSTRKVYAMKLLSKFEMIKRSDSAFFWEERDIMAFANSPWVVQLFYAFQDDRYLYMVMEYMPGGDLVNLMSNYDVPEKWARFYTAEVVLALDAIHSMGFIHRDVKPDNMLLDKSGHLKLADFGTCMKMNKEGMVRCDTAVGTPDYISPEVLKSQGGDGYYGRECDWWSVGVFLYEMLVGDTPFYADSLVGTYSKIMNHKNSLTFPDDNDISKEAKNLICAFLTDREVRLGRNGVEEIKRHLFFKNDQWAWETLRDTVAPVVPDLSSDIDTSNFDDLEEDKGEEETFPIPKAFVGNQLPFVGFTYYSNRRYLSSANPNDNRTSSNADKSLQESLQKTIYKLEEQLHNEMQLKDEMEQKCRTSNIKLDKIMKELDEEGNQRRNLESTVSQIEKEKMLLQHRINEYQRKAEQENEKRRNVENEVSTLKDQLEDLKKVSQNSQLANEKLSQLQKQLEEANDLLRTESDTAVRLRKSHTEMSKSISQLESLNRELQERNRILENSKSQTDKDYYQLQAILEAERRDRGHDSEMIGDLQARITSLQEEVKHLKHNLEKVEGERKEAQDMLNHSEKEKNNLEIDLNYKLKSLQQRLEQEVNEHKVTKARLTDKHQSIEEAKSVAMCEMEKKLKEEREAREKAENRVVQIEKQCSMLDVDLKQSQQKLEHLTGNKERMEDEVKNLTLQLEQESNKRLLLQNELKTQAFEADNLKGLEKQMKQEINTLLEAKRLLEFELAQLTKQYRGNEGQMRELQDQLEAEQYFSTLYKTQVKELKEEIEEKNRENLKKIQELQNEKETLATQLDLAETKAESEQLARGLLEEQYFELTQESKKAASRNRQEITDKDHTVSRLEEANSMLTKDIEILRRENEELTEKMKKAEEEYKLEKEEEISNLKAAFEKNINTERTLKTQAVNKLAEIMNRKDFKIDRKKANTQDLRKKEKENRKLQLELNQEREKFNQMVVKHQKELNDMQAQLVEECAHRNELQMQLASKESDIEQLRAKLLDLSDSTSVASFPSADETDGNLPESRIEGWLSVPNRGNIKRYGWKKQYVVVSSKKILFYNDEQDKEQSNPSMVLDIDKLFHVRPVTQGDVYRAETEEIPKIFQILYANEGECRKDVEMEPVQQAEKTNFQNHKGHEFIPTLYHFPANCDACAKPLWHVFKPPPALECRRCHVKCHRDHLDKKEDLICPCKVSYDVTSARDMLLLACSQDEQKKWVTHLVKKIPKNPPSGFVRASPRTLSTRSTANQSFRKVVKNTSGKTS
Experimental: as §1, §2

Chain of ROCK 2 (Rho kinase 2) (O75116 whole entry): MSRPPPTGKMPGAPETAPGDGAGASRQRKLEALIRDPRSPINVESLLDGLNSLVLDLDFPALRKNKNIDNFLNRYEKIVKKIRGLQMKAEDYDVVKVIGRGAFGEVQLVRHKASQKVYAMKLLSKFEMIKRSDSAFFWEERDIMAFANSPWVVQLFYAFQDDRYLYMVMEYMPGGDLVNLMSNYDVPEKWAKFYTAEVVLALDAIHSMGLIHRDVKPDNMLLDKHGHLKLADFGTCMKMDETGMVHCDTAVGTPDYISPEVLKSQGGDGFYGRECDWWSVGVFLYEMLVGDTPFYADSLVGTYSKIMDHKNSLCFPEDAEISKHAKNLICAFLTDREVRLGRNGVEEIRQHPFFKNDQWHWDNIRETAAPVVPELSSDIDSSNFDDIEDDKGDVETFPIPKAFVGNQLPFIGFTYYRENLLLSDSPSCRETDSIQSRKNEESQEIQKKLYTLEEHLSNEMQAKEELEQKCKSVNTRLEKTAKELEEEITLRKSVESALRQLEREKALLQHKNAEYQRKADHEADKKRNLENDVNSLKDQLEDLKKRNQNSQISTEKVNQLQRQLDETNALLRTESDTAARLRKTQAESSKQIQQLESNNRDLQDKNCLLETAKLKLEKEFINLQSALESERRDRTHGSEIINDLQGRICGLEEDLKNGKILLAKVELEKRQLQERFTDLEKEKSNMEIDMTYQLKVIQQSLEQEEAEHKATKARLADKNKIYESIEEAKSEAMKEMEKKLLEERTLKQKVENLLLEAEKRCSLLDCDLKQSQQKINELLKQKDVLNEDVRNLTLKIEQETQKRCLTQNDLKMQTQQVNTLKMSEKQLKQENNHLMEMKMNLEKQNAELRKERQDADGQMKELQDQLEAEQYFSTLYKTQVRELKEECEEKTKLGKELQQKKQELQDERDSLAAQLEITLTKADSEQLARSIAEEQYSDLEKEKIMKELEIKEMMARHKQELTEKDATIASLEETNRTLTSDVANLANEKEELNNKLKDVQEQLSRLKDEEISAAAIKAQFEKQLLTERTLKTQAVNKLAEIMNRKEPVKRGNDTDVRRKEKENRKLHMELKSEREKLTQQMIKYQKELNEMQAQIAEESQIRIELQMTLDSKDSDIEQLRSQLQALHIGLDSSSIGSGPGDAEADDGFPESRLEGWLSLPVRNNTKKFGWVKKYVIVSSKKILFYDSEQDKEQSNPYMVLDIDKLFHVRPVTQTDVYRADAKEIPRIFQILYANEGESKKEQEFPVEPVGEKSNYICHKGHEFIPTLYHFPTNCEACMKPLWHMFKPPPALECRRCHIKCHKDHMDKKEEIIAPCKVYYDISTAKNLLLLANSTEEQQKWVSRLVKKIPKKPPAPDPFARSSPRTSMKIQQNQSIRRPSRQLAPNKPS

SMILES | Ki (ROCK 2 (Rho kinase 2)) [nM] | Ki (ROCK 1 (Rho kinase 1)) [nM]
Cc1c[nH]c2nccc(Oc3ccc(C[C@H](N)C(=O)NC4CCN(C)CC4(C)C)cc3F)c12 (single isomer, unassigned) [Example 8a] | < 3 | < 3
Cc1c[nH]c2nccc(Oc3ccc(C[C@H](N)C(=O)NC4CCN(C)CC4(C)C)cc3F)c12 (single isomer, unassigned) [Example 8b] | < 3 | < 3
Cc1c[nH]c2nccc(Oc3ccc(C[C@H](N)C(=O)NC4CCCN(C)C4)cc3F)c12 (single isomer, unassigned) [Example 17] | 3 to 30 | 3 to 30
Cc1c[nH]c2nccc(Oc3ccc(C[C@H](N)C(=O)NC4CCCN(C)C4)cc3F)c12 (single isomer, unassigned) [Example 18] | 3 to 30 | 3 to 30
Cc1c[nH]c2nccc(Oc3ccc(C[C@H](N)C(=O)NC4CCN(C5CCC5)CC4)cc3F)c12 [Example 1, (S)-2-Amino-N-(1-cyclobutylpiperidin-4-yl)-3-(3-fluoro-4-((3-methyl-1H-pyrrolo[2,3-b]pyridin-4-yl)oxy)phenyl)propanamide] | < 3 | < 3
Cc1c[nH]c2nccc(Oc3ccc(C[C@H](N)C(=O)NC4CCN(C5CCOC5)CC4)cc3F)c12 (stereo partly drawn) [Example 2, (2S)-2-Amino-3-(3-fluoro-4-((3-methyl-1H-pyrrolo[2,3-b]pyridin-4-yl)oxy)phenyl)-N-(1-(tetrahydrofuran-3-yl)piperidin-4-yl)propanamide] | < 3 | < 3
Cc1c[nH]c2nccc(Oc3ccc(C[C@H](N)C(=O)NC4CCN(C5COC5)CC4)cc3F)c12 [Example 3, (S)-2-Amino-3-(3-fluoro-4-((3-methyl-1H-pyrrolo[2,3-b]pyridin-4-yl)oxy)phenyl)-N-(1-(oxetan-3-yl)piperidin-4-yl)propanamide] | < 3 | < 3
Cc1c[nH]c2nccc(Oc3ccc(C[C@H](N)C(=O)NC4(C)CCN(C)CC4)cc3F)c12 [Example 4, (S)-2-Amino-N-(1,4-dimethylpiperidin-4-yl)-3-(3-fluoro-4-((3-methyl-1H-pyrrolo[2,3-b]pyridin-4-yl)oxy)phenyl)propanamide] | < 3 | < 3
Cc1c[nH]c2nccc(Oc3ccc(C[C@H](N)C(=O)NC4CCN(C5CC5)CC4)cc3F)c12 [Example 5, (S)-2-Amino-N-(1-cyclopropylpiperidin-4-yl)-3-(3-fluoro-4-((3-methyl-1H-pyrrolo[2,3-b]pyridin-4-yl)oxy)phenyl)propanamide] | < 3 | < 3
Cc1c[nH]c2nccc(Oc3ccc(C[C@H](N)C(=O)NC4CCN(CC(C)C)CC4)cc3F)c12 [Example 6, (S)-2-Amino-3-(3-fluoro-4-((3-methyl-1H-pyrrolo[2,3-b]pyridin-4-yl)oxy)phenyl)-N-(1-isobutylpiperidin-4-yl)propanamide] | < 3 | < 3
CCN1CCC(NC(=O)[C@@H](N)Cc2ccc(Oc3ccnc4[nH]cc(C)c34)c(F)c2)CC1 [Example 7, (S)-2-Amino-N-(1-ethylpiperidin-4-yl)-3-(3-fluoro-4-((3-methyl-1H-pyrrolo[2,3-b]pyridin-4-yl)oxy)phenyl)propanamide] | < 3 | < 3
Cc1c[nH]c2nccc(Oc3ccc(C[C@H](N)C(=O)N4CCC(O)(CO)CC4)cc3F)c12 [Example 9, (S)-2-Amino-3-(3-fluoro-4-((3-methyl-1H-pyrrolo[2,3-b]pyridin-4-yl)oxy)phenyl)-1-(4-hydroxy-4-(hydroxymethyl)piperidin-1-yl)propan-1-one] | < 3 | < 3
Cc1c[nH]c2nccc(Oc3ccc(C[C@H](N)C(=O)N[C@@H]4CCN(C)C4)cc3F)c12 [Example 10, (S)-2-Amino-3-(3-fluoro-4-((3-methyl-1H-pyrrolo[2,3-b]pyridin-4-yl)oxy)phenyl)-N-((R)-1-methylpyrrolidin-3-yl)propanamide] | < 3 | < 3
Cc1c[nH]c2nccc(Oc3ccc(C[C@H](N)C(=O)N4CCN(C)CC45CC5)cc3F)c12 [Example 11, (S)-2-Amino-3-(3-fluoro-4-((3-methyl-1H-pyrrolo[2,3-b]pyridin-4-yl)oxy)phenyl)-1-(7-methyl-4,7-diazaspiro[2.5]octan-4-yl)propan-1-one] | < 3 | 3 to 30
Cc1c[nH]c2nccc(Oc3ccc(C[C@H](N)C(=O)N4C[C@@H]5CN(C6CC6)C[C@@H]5C4)cc3F)c12 [Example 12, (S)-2-Amino-1-((3aR,6aS)-5-cyclopropylhexahydropyrrolo[3,4-c]pyrrol-2(1H)-yl)-3-(3-fluoro-4-((3-methyl-1H-pyrrolo[2,3-b]pyridin-4-yl)oxy)phenyl)propan-1-one] | < 3 | < 3
Cc1c[nH]c2nccc(Oc3ccc(C[C@H](N)C(=O)N4C[C@@H]5C[C@H]4CN5C4CC4)cc3F)c12 [Example 13, (S)-2-Amino-1-((1S,4S)-5-cyclopropyl-2,5-diazabicyclo[2.2.1]heptan-2-yl)-3-(3-fluoro-4-((3-methyl-1H-pyrrolo[2,3-b]pyridin-4-yl)oxy)phenyl)propan-1-one] | < 3 | < 3
COCCN1CCC(NC(=O)[C@@H](N)Cc2ccc(Oc3ccnc4[nH]cc(C)c34)c(F)c2)CC1 [Example 14, (S)-2-Amino-3-(3-fluoro-4-((3-methyl-1H-pyrrolo[2,3-b]pyridin-4-yl)oxy)phenyl)-N-(1-(2-methoxyethyl)piperidin-4-yl)propanamide] | < 3 | < 3
Cc1c[nH]c2nccc(Oc3ccc(C[C@H](N)C(=O)NC4CCN(CCCF)CC4)cc3F)c12 [Example 15, (S)-2-Amino-3-(3-fluoro-4-((3-methyl-1H-pyrrolo[2,3-b]pyridin-4-yl)oxy)phenyl)-N-(1-(3-fluoropropyl)piperidin-4-yl)propanamide] | < 3 | < 3
Cc1c[nH]c2nccc(Oc3ccc(C[C@H](N)C(=O)NC4CCN(CC5CC5)CC4)cc3F)c12 [Example 16, (S)-2-Amino-N-(1-(cyclopropylmethyl)piperidin-4-yl)-3-(3-fluoro-4-((3-methyl-1H-pyrrolo[2,3-b]pyridin-4-yl)oxy)phenyl)propanamide] | < 3 | < 3
Cc1c[nH]c2nccc(Oc3ccc(C[C@H](N)C(=O)N4CCC(NC5CC5)CC4)cc3F)c12 [Example 19, (S)-2-Amino-1-(4-(cyclopropylamino)piperidin-1-yl)-3-(3-fluoro-4-((3-methyl-1H-pyrrolo[2,3-b]pyridin-4-yl)oxy)phenyl)propan-1-one] | < 3 | < 3
Cc1c[nH]c2nccc(Oc3ccc(C[C@H](N)C(=O)NC4(CO)CCN(C5CC5)CC4)cc3F)c12 [Example 20, (S)-2-Amino-N-(1-cyclopropyl-4-(hydroxymethyl)piperidin-4-yl)-3-(3-fluoro-4-((3-methyl-1H-pyrrolo[2,3-b]pyridin-4-yl)oxy)phenyl)propanamide] | < 3 | < 3
Cc1c[nH]c2nccc(Oc3ccc(C[C@H](N)C(=O)NC4(C(N)=O)CCN(C5CC5)CC4)cc3F)c12 [Example 21, (S)-4-(2-Amino-3-(3-fluoro-4-((3-methyl-1H-pyrrolo[2,3-b]pyridin-4-yl)oxy)phenyl)propanamido)-1-cyclopropylpiperidine-4-carboxamide] | < 3 | < 3
Cc1c[nH]c2nccc(Oc3ccc(C[C@H](N)C(=O)N4CCc5ccncc5C4)cc3F)c12 [Example 22, (S)-2-Amino-1-(3,4-dihydro-2,7-naphthyridin-2(1H)-yl)-3-(3-fluoro-4-((3-methyl-1H-pyrrolo[2,3-b]pyridin-4-yl)oxy)phenyl)propan-1-one] | < 3 | < 3
Cc1c[nH]c2nccc(Oc3ccc(C[C@H](N)C(=O)N4CCc5cncnc5C4)cc3F)c12 [Example 23, (S)-2-Amino-1-(5,8-dihydropyrido[3,4-d]pyrimidin-7(6H)-yl)-3-(3-fluoro-4-((3-methyl-1H-pyrrolo[2,3-b]pyridin-4-yl)oxy)phenyl)propan-1-one] | < 3 | < 3
Cc1c[nH]c2nccc(Oc3ccc(C[C@H](N)C(=O)N4CCc5ncsc5C4)cc3F)c12 [Example 24, (S)-2-Amino-1-(6,7-dihydrothiazolo[5,4-c]pyridin-5(4H)-yl)-3-(3-fluoro-4-((3-methyl-1H-pyrrolo[2,3-b]pyridin-4-yl)oxy)phenyl)propan-1-one] | < 3 | < 3
Cc1c[nH]c2nccc(Oc3ccc(C[C@H](N)C(=O)N4CCc5cnccc5C4)cc3F)c12 [Example 25, (S)-2-Amino-1-(3,4-dihydro-2,6-naphthyridin-2(1H)-yl)-3-(3-fluoro-4-((3-methyl-1H-pyrrolo[2,3-b]pyridin-4-yl)oxy)phenyl)propan-1-one] | < 3 | < 3
Cc1c[nH]c2nccc(Oc3ccc(C[C@H](N)C(=O)N4CCc5ncccc5C4)cc3F)c12 [Example 26, (S)-2-amino-1-(7,8-dihydro-1,6-naphthyridin-6(5H)-yl)-3-(3-fluoro-4-((3-methyl-1H-pyrrolo[2,3-b]pyridin-4-yl)oxy)phenyl)propan-1-one] | < 3 | < 3
